According to patent US10258620B2, “Crystalline form of 5-amino-2,3-dihydrophthalazine-1,4-dione sodium salt, pharmaceutical preparations containing the same and method for the production of said form” (METRIOPHARM AG, priority 2014, dated 2019):
Where a name gives a salt, the structure may show the parent alone. Read-outs that look alike come from different tables or passages of the source. Values belong to the compound of their own block, whether it stands above or below them.

How the values were obtained:
[1] = FIG. 8, increasing proportion of H2O
[2] = determination repeated 10 times
Protocol: After drying all forms produced were vortexed for 1 minute to let bigger agglomerates carefully disaggregate.
A sample of each of the respective solids to be determined was filled into a plastic funnel for solids (diameter of the outlet: 11 mm) with closable outlet which was mounted in a height of 20 mm above the collecting vessel. The funnel used was always filled half-full, thereby ensuring that there was always more sample material provided than necessary for filling the collecting vessel. After opening the outlet the respective solids trickled into the collecting vessel until it was filled up above the upper rim. The supernatant of the respective solids was removed with a spatula and the filled collecting vessel was weighed out with a high-resolution balance. The determination for each form was repeated 10 times and the mean value was calculated (Table 3).

[3] = from WO2011/107295A1; cited from earlier work
IL-6 = conditions: PMA-differentiated HL60 cells, pre-stimulation 1 h with 1 mmol/l, then 100 ng/mL LPS 24 h, 3 measurements, LPS control 42.81
Protocol: (§1) For the differentiation to macrophages HL60 cells were treated with phorbol 12-myristate 13-acetate (PMA) in advance. […] The secretion of TNF alpha and IL-6 was determined in the cell supernatant using ELISA testing over 3 measurements, respectively. Table 4 as well as FIGS. 7a and 7b show the respective mean value m and the standard deviation s (GraphPad Prism 5).

TNF alpha = conditions: PMA-differentiated HL60 cells, pre-stimulation 1 h with 1 mmol/l, then 100 ng/mL LPS 24 h, 3 measurements, LPS control 30.08
Protocol: as §1

physchem = assay: physchem
Protocol: Determination of the maximum solubility of crystalline form III in water at RT was carried out with UV-Vis spectroscopy in an Agilent Cary 300 UV-Vis spectrometer. This process is based on a linear correlation between the concentration of a dissolved solid and the calculated absorption at a particular wavelength (Beer-Lambert law).
A stock solution of 0.502 g of form III in 2 mL H2O (demineralized) was produced. For the generating a 3-point calibration curve three solutions were produced after appropriate dilution thereof with concentrations of 0.5041 mmol/l, 0.2521 mmol/l and 0.1260 mmol/l, and their respective absorption at 347 nm was determined. […] Further, a supersaturated solution of 0.531 g of form III in 2 mL H2O (demineralized) was produced to determine the maximum concentration. 100 μL of the solution were 2000-fold diluted and the absorption at 347 nm was determined as well.

[4] = 30-600° C., synthetic air, heating rate 10° C./min
Protocol: The determination was carried out by means of simultaneous thermogravimetry (differential scanning calorimetry) at a Linseis L81-077 coupled with mass spectroscopy measurements with a Netzsch STA 449 C (thermobalance) with MS and FTIR coupling over 30-600° C. under synthetic air (4 N2:1 O2) and a heating rate of 10° C./min. The data were analyzed with the company software Proteus.

[5] = methanol or ethanol
Text: In polymorphs of crystalline solids phase transitions occur depending on the thermodynamic stability of the individual forms. […] Different transformation processes are known. […] In this respect so-called slurry experiments can provide information on the thermodynamic stability of polymorphs of a solid.
To compare the stability under the influence of solvents 50:50 (wt %) solid phase mixtures were produced of form III according to the invention and form I as well as of form III according to the invention and form II.
In each case 0.05 g of the respective solid phase mixture were suspended in 5 mL 2-propanol, methanol or ethanol, respectively. The mixture of form III and form I was stirred at RT for 3 days. The mixture of form III and form II was stirred at RT for 24 h. The suspensions were filtered under vacuum utilizing a Büchner funnel. The remaining crystalline solid was completely dried at RT. X-ray powder diffraction patterns of the resulting crystalline solids were recorded with a Bragg-Brentano diffractometer (STOE STADI P) provided with a DECTRIS MythenlK detector using mono-chromatized (Ge111-monochromator) copper emissions Cu K(α1) (wave length λ=1.54187 Å).

[6] = water, thermodynamic from solid

SMILES: Nc1cccc2c(=O)[nH][nH]c(=O)c12 [5-amino-2,3-dihydrophthalazine-1,4-dione sodium salt]
solubility in a DMSO-H2O mixture with increasing proportion of H2O [1]: increases continuously

SMILES: Nc1cccc2c(=O)[nH][nH]c(=O)c12 [Dihydrate, 5-amino-2,3-dihydrophthalazine-1,4-dione sodium salt dihydrate]
Bulk densities (mean ± standard deviation) ([2]; sodium salt dihydrate): 72.3 ± 4.1 kg/m^3 | solid phase transition temperature [3]: 85 °C | IL-6 secretion, mean m (IL-6; sodium salt dihydrate): 40.93 pg/mL | TNF-alpha secretion, mean m (TNF alpha; sodium salt dihydrate): 26.87 pg/mL

SMILES: Nc1cccc2c(=O)[nH][nH]c(=O)c12 [Form I, 5-amino-2,3-dihydrophthalazine-1,4-dione sodium salt]
Bulk densities (mean ± standard deviation) ([2]; sodium salt): 201.9 ± 3.9 kg/m^3 | IL-6 secretion, mean m (IL-6; sodium salt): 41.15 pg/mL | TNF-alpha secretion, mean m (TNF alpha; sodium salt): 25.28 pg/mL

Continued, in another order:

Bulk densities (mean ± standard deviation) ([2]; sodium salt): 108.6 ± 3.0 kg/m^3
SMILES: Nc1cccc2c(=O)[nH][nH]c(=O)c12 [Form II, 5-amino-2,3-dihydrophthalazine-1,4-dione sodium salt]
IL-6 secretion, mean m (IL-6; sodium salt): 36.11 pg/mL | TNF-alpha secretion, mean m (TNF alpha; sodium salt): 22.16 pg/mL

solubility in water compared with forms I and II (physchem; RT, forms I and II cf. WO2011/107295A1): less soluble than forms I and II | solubility (physchem; [6]): 145 mg/mL | solubility thermodynamic (physchem; [6]): 730 mM | temperature at which decomposition starts [4]: 391.7 °C | thermodynamic stability versus form I ([5]; 50:50 wt % mixture of form I and form III in 2-propanol, stirred at RT for 3 days): thermodynamically more stable polymorph | thermodynamic stability versus form II ([5]; 50:50 wt % mixture of form II and form III in 2-propanol, stirred at RT for 24 h): thermodynamically more stable polymorph | Bulk densities (mean ± standard deviation) ([2]; sodium salt): 203.5 ± 6.7 kg/m^3
SMILES: Nc1cccc2c(=O)[nH][nH]c(=O)c12 [Form III, 5-amino-2,3-dihydrophthalazine-1,4-dione sodium salt]
IL-6 secretion, mean m (IL-6; sodium salt): 34.86 pg/mL | TNF-alpha secretion, mean m (TNF alpha; sodium salt): 22.15 pg/mL
